According to patent US11166464B2, “Self-assembled active agents” (priority 2017, dated 2021):
Marks after values point to notes of the source that are not given here.

Key:
[1] = system: A. brasiliensis ATCC16404; assay: MIC of aminoguanidine-aldehyde adducts, actives dissolved in all-purpose cleaner and diluted in MH broth; assay type: cell-based, Aspergillus brasiliensis; settings: aminoguanidine adduct of the listed aldehyde; 4 × 10^5 spores/mL starting spore counts; Table 4
Procedure: General procedure for preparation of actives: Complexes were formed by treating 20 mg of aldehyde or ketone with 180 mg of aminoguanidine HCl stock solution (37 wt % aminoguanidine HCl in dH2O) and heating at 60° C. for 48 h. The resulting product mixtures were subsequently screened for antimicrobial activity.

[2] = system: Aspergillus brasillensis, ATCC16404; assay: Preservative test in home cleaning formulations; assay type: cell-based, Aspergillus brasiliensis; settings: aminoguanidine adducts of the named hydrophilic aldehydes
[3] = system: Aspergillus brasiliensis (ATCC 16404); assay: Viability of microbes in formula over time (log reduction in cell count); assay type: cell-based; settings: seven days, initial 5 × 10^6 cells/mL; for Log Reduction in APC formula: aminoguanidine complex of the listed aldehyde at 0.1 wt % in all-purpose cleaner; for Log Reduction in MDC formula: aminoguanidine complex of the listed aldehyde at 0.1 wt % in manual dish formula
Procedure: […] The total volume of the mixture was 5 mL. The inoculated mixture was kept in a shaker at 30° C. for 7 days. Microorganism viability was determined by plating […] of inoculated mixture on MH agar plates on days 0, 3, and 7.
A. Brasiliensis cell counts were monitored and counted over seven days.

[4] = system: Pseudomonas aeruginosa; assay: MIC and synergy (1/FICI) in cation-adjusted Mueller-Hinton broth, abs600 after 24 h; assay type: cell-based; settings: for MIC (wt %): component alone, 24 h, 37° C.
Procedure: (§1) To compare antimicrobial efficacy of self-assembled complexes to their components, fractional inhibitory concentration indices (FICIs) were calculated from measured minimum inhibitory concentrations (MICs) against Pseudomonas aeruginosa and Escherichia coli. The MIC of each substance was determined according to standard guidelines in cation-adjusted Mueller-Hinton broth at a total volume of ˜100 μl with test concentrations decreasing two-fold to span the empirically-determined MIC (J. Med. Chem., 59: 2126-2138 (2016)). Wells contained starting microbe concentrations of approximately 10^7 cells/mL. Absorbance at 600 nm (abs600) was determined immediately after inoculation using a 96 well plate reader. Plates were incubated at 37° C. and abs600 measured after 24 hours. For the purposes of these experiments, minimum inhibitory concentrations are defined as the minimum concentration observed to inhibit microbial growth over this time span, with a change in abs600 less than or equal to 0.1.
Following MIC testing, FICI were calculated as shown in Equation 1: […]
The FICI can be used to quantify the synergy between two components (X and Y). Specifically, 1/FICI can be used as a measure of synergy, interpreted as factors by which the potency of a given combination is greater than the sum of its parts (see Journal of Antimicrobial Chemotherapy, 52:1 (2003)). For example, in the present invention, synergy may be found when the effective amount of the self-assembled active agent is lower than the sum of the effective amounts of the two or more component molecules.
(§2) For the data in Table 2, when multiple components were used to form a complex, the amine component was present in excess of a 1:1 molar ratio.
The MICs determined as per above were then used to calculate FICIs. Note that 1/FICI values varied with subcomponent ratio; unless otherwise noted, the values shown in Table 3 represent a molar ratio of 6:1, amine:aldehyde.

[5] = system: Escherichia coli; assay: MIC in cation-adjusted Mueller-Hinton broth, abs600 after 24 h; assay type: cell-based; settings: amine + aldehyde combined, amine in excess of 1:1 molar ratio, E. coli
Procedure: as §1, §2

[6] = system: A. brasiliensis ATCC16404; assay: MIC of aminoguanidine-aldehyde adducts, actives dissolved in all-purpose cleaner and diluted in MH broth; assay type: cell-based, Aspergillus brasiliensis; settings: subcomponent alone (parent aldehyde, aminoguanidine or biocide standard), not the complex; Table 5

2,4,6-trimethoxybenzaldehyde
MIC (wt %) [1]: 0.0595 wt %
Preservation of the high surfactant manual dish formula [2]: enabled effective preservation

2,6-dimethoxybenzaldehyde
MIC (wt %) [1]: 0.0149 wt %
Preservation of the high surfactant manual dish formula [2]: enabled effective preservation

2-hydroxyl-4-methoxybenzaldehyde
MIC (wt %) [1]: 0.0149 wt %
Log Reduction in APC formula [3]: 1
Log Reduction in MDC formula [3]: 1

4-hydroxybenzaldehyde
MIC (wt %) [1]: 0.0298 wt %
Preservation of the high surfactant manual dish formula [2]: enabled effective preservation

COc1ccc(C=O)c(OC)c1 [2,4-dimethoxybenzaldehyde]
Log Reduction in APC formula [3]: 6
Log Reduction in MDC formula [3]: 1

O=Cc1ccc(C=O)o1 [2,5-furandicarboxaldehyde]
Log Reduction in APC formula [3]: 1
Log Reduction in MDC formula [3]: 1

O=Cc1ccc(C=O)s1 [2,5-thiophenedicarboxaldehyde]
Log Reduction in APC formula [3]: 2
Log Reduction in MDC formula [3]: 1

O=Cc1cccc(C=O)c1Br [2-bromoisophthalaldehyde]
Log Reduction in APC formula [3]: 2
Log Reduction in MDC formula [3]: 1

Cl.N=C(NN)NN [A, 1,3-diaminoguanidine]
MIC (wt %) ([4]; P. aeruginosa): 0.3^i wt %

NC(N)=NN=Cc1ccc(C=NN=C(N)N)cc1 [B + 5]
MIC (wt %) of complex, given as aldehyde component ([4]; amine + aldehyde combined, amine in excess of 1:1 molar ratio, concentration of aldehyde component, P. aeruginosa): 0.01^i wt %
MIC (wt %) of complex, given as amine component ([4]; amine + aldehyde combined, amine in excess of 1:1 molar ratio, concentration of amine component, P. aeruginosa): 0.06^i wt %

Cc1cc(C=NN=C(N)N)c(O)c(C=NN=C(N)N)c1 [B + 10]
MIC (wt %) of complex, given as aldehyde component ([5]; concentration of aldehyde component): 0.002^ii wt %
MIC (wt %) of complex, given as amine component ([5]; concentration of amine component): 0.02^ii wt %

O=Cc1ccc(C=O)cc1 [Entry 5, terephthalaldehyde]
MIC (wt %) ([4]; P. aeruginosa): 0.3^i wt %

O=Cc1cc(C=O)cc(C=O)c1 [Entry 7, benzene-1,3,5-tricarboxaldehyde]
MIC (wt %) ([4]; P. aeruginosa): 0.3^i wt %
Synergism (1/FICI) with B, extrapolated ([4]; extrapolated from eight FICI measurements where the weight ratio of B:7 varied from 1:1 to 9:1): 1000*

aminoguanidine [B]
MIC (wt %) ([4]; P. aeruginosa): >2^i wt %
MIC (wt %) subcomponent [6]: >0.4762 wt %

glyoxal [Entry 1]
MIC (wt %) ([4]; P. aeruginosa): 0.04^i wt %

m-anisaldehyde
MIC (wt %) [1]: 0.0595 wt %
Preservation of the high surfactant manual dish formula [2]: enabled effective preservation

vanillin isobutyrate
MIC (wt %) [1]: 0.1190 wt %
